Laboratory results reported in patent US20110172171A1, “TAURINE OR TAURINE-LIKE SUBSTANCES FOR THE PREVENTION OF BRAIN OEDEMA” (priority 2008, published 2011).
Values joined by “and” are separate entries in the source; they are usually repeats but may differ in a detail not shown here. Equal values may be shown once. “Also recorded” adds a separate entry of the source.

Test system: white matter adjacent to the cerebellar nuclei, and the nuclei
Experiment: Vigabatrin-induced brain vacuolation in rats, histology of cerebellar sections scored by light microscopy
Assay type: in vivo, Wistar rats
Set-up: key to vacuolation score (grade) of cerebellum: 1: No or occasional individual vacuoles in perinuclear white matter.; 2: Mild to moderate regional vacuolation of perinuclear white matter, sometimes extending into nucleus.; 3: Extensive, widespread vacuolation of perinuclear white matter, often with involvement of adjacent nuclear regions. Vacuolation may extend to folial white matter
Settings: for vacuolation score (grade) of cerebellum: blinded scoring; for vacuolation in the brain tissue (histological appearance): cerebellar sections
Protocol: Animal treatments: As described previously (Duboc A. et al. 2004; Izumi Y. et al. 2004), Wistar rats Rj Wi IOPS Han were purchased from Janvier (Le Genest-St-Isle, France) at between six and seven weeks of age. vigabatrin dissolved in 0.9% NaC1 was administered at 40mg (125 mg/ml, 0.32m1) to rats by daily intraperitoneal injection for 65 days. These daily doses (rats: 200mg/kg) are in-line with those described for the treatment of epilepsy (adult patients: […]; children: 50-75mg/kg; or infants: 100-150 mg/kg) (Chiron C. et al. 1997; Lux AL. et al. 2004; Aicardi J. et al. 1996). Taurine supplementation was given in drinking water at a concentration of 0.1M.
Histology: Rats were anesthetized by intraperitoneal injection (0.8 to 1.2 ml/kg) of a solution containing ketamine (40 mg/ml) and xylazine (4 mg/ml Rompum). Rat heads were removed and an opening created in the calvarium. These were then immersion fixed in 4% buffered formol (T/02170015, MMFrance) and then placed in phosphate buffered saline. Brains were then removed from the skulls and placed in 10% neutral buffered formalin. Brains were trimmed and their cerebellar nuclei placed in 10% buffered formalin and embedded in paraffin. Sections of the cerebellar nuclei were stained with hematoxylin and eosin.
Vacuolation of cerebellum was assessed by light microscopy, with the region of emphasis being the white matter adjacent to the cerebellar nuclei, and the nuclei. Vacuolation was scored as follows.
1- No or occasional individual vacuoles in perinuclear white matter.
2- Mild to moderate regional vacuolation of perinuclear white matter, sometimes extending into nucleus.
3- Extensive, widespread vacuolation of perinuclear white matter, often with involvement of adjacent nuclear regions. Vacuolation may extend to folial white matter

Row | Compound | vacuolation score (grade) of cerebellum (vigabatrin-treated rats (200mg/kg daily i.p., 65 days) with taurine 0.1M in drinking water, n=7 (grade 1 n=3, grade 2 n=4), 200 mg/kg) | vacuolation in the brain tissue (histological appearance) (vigabatrin-treated rats supplemented with taurine (0.1M in drinking water), FIG. 1C) | vacuolation score (grade) of cerebellum (rats, vigabatrin 40 mg (200mg/kg) daily intraperitoneal injection for 65 days, n=7) | vacuolation in the brain tissue (histological appearance) (vigabatrin-treated rats, FIG. 1B)
1 | NCCS(=O)(=O)O [taurine, 2-aminoethanesulfonic acid] | 1 and 2 | mild and vacuoles were present in some animals but appeared at a much lower density | – | –
2 | C=CC(N)CCC(=O)O (stereo not shown) [vigabatrin, 4-amino-5-hexenoic acid, reference compound] | – | – | 3 | extensive; also recorded: a great number of vacuoles
